Assay results: US6156790A, “C-10 carbon-substituted artemisinin-like trioxane compounds having antimalarial, antiproliferative and antitumor activities” (priority 1997, dated 2000)

What was measured:
RPMI-8226 = experiment: cells; format: cell-based; conditions: Homo sapiens
HL-60(TB) = experiment: cells; conditions: Homo sapiens
[1] = cited from earlier work
P. falciparum = conditions: Camp (chloroquine-susceptible) and Smith (chloroquine-resistant) strains; cited from earlier work
[2] = system: P. vivax and P. falciparum; conditions: cited from earlier work
[3] = stability of pyranosyl fluorides; format: physicochemical; conditions: after purification
Source text: Coupling of either the α-fluoride or the β-fluoride VI with trimethylaluminum in the presence of boron trifluoride-etherate gave 10β-methyl derivative VII where n=1 and R=CH3 with almost complete stereoselectivity, thereby implicating a common oxygen-stabilized C-10 carbocation intermediate. The relative stereochemistry at carbons 9 and 10 was established by the characteristic ^1 H NMR chemical shifts and coupling constants of the methine hydrogen atoms at these positions (J9,10 =10-11 Hz for trans and J9,10 =5.6-6.7 Hz for cis). […] Several dimethyl aluminum acetylides, prepared from Me2 AlCl and the corresponding lithium acetylides, coupled smoothly to form exclusively the 10β-acetylenic derivatives. Di- and tri-methoxylated benzenes and heteroaromatic N-methylpyrrole and furan coupled to produce exclusively, in stereochemical contrast, the 10α-oriented derivatives. Apparently, relatively small nucleophiles approach the intermediate cation from the β-face of the molecule, whereas relatively large aryl and heteroaryl nucleophiles approach from the α-face (i.e. directed by and trans to the C-9 methyl group). Coupling of pyranosyl fluoride VI with N-methylpyrrole proceeded equally well on 400 mg scale as on 20 mg scale, and larger scale executions of this and of the other coupling reactions reported here are not expected to be a problem.

NCI-H322M = experiment: cells; format: cell-based; conditions: Homo sapiens, read-out: Log10 TGI
OVCAR-4 = experiment: NCI 60 cell line screen (SRB), ovarian cancer; format: cell-based; conditions: Homo sapiens, read-out: Log10 GI50 (converted)
DU-145 = experiment: cells; format: cell-based; conditions: Homo sapiens
SF-295 = experiment: cells; format: cell-based; conditions: Homo sapiens
[4] = read-out: Log10 LC50 (converted)
[5] = read-out: Log10 GI50 (converted)
[6] = read-out: Log10 TGI (converted)

SMILES: C[C@@H]1CC[C@H]2[C@@H](C)C(=O)O[C@@H]3O[C@@]4(C)CC[C@@H]1[C@]32OO4 [Artemisinin]
- CC50 (RPMI-8226; [4]): > 100 µM
- IC (TGI) (RPMI-8226; read-out: Log10 TGI): > 100 µM
- GI50 (HL-60(TB); HL-60, read-out: Log10 GI50 (converted)): 55 µM
- CC50 (HL-60(TB); HL-60, read-out: Log10 LC50 (converted)): > 100 µM
- IC (TGI) (HL-60(TB); HL-60, read-out: Log10 TGI): 100 µM
- solubility in water [1]: insolubility in water
- potency in vitro compared with mefloquine (P. falciparum): comparable
- clinical cure ([2]; 2099 cases, P. vivax and P. falciparum about 3:1): clinical cure of all patients
- suppression of parasitemias ([2]; P. vivax and P. falciparum): effective at suppressing the parasitemias

SMILES: C[C@H]1[C@@H](F)O[C@@H]2O[C@@]3(C)CC[C@H]4[C@H](C)CC[C@@H]1[C@@]24OO3 [Compound VI, 10β-Fluorodeoxoartemisinin]
- stability of solid [3]: stable crystalline solid
- IC (TGI) (NCI-H322M): > 100 µM

SMILES: C[C@H]1[C@@H](CC(=O)c2ccc(C(=O)C[C@H]3O[C@@H]4O[C@@]5(C)CC[C@H]6[C@H](C)CC[C@@H]([C@H]3C)[C@@]46OO5)cc2)O[C@@H]2O[C@@]3(C)CC[C@H]4[C@H](C)CC[C@@H]1[C@@]24OO3 [Dimer 21]
- GI50 (OVCAR-4): 1.58 µM
- GI50 (DU-145; [5]): 6.31 µM
- IC (TGI) (DU-145; [6]): 31.6 µM
- GI50 (SF-295; [5]): 4.79 µM
- CC50 (SF-295; [4]): 77.6 µM
- IC (TGI) (SF-295; [6]): 25.1 µM
